Test results reported in PubChem BioAssay AID330 (DTP/NCI, 2004).
Values joined by “and” are separate entries in the source; they are usually repeats but may differ in a detail not shown here. Identical values can stand only once. Inconclusive results and toxic doses are left out.

Tested on: P388 leukemia ip, CD2F1 mice, survival T/C
Test: NCI In Vivo Anticancer Drug Screen. Data for tumor model P388 Leukemia (intraperitoneal) in CD2F1 (CDF1) mice
Conditions: endpoint: median survival time, higher = longer survival
Summary of the method: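 Mice carrying the transplanted tumor received test compound or vehicle. Survival was recorded in each group, and the value is the treated-group measurement divided by that of the vehicle-treated control group.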

[1] = dose: 60.0 mg/kg/injection, schedule: Q01DX005 (ip), vehicle: Klucel (hydroxypropylcellulose) (HPC)
[2] = dose: 50.0 mg/kg/injection, schedule: Q01DX005 (ip), vehicle: saline with Tween-80
[3] = dose: 100.0 mg/kg/injection, schedule: Q01DX005 (ip), vehicle: saline with Tween-80

Question: For `CCN(CC)C1CC(O[C@H]2C[C@](O)(C(C)=O)Cc3c(O)c4c(c(O)c32)C(=O)c2c(OC)cccc2C4=O)OC(C)C1O` (stereo partly specified), which T/C (dose: 0.25 mg/kg/injection, schedule: Q01DX009 (ip), vehicle: water) is on record?
Answer: 104 % of control

Question: What about the T/C (dose: 0.5 mg/kg/injection, schedule: Q01DX009 (ip), vehicle: water) of the same compound?
Answer: 114 % of control

Question: And the T/C (dose: 4.0 mg/kg/injection, schedule: Q01DX009 (ip), vehicle: water)?
Answer: 174 % of control and 183 % of control

Question: What about the T/C (dose: 6.0 mg/kg/injection, schedule: Q04DX003 (ip), vehicle: water) of the same compound?
Answer: 117 % of control

Question: And the T/C (dose: 8.0 mg/kg/injection, schedule: Q01DX009 (ip), vehicle: water)?
Answer: 100 % of control

Question: What about the T/C (dose: 20.0 mg/kg/injection, schedule: Q04DX003 (ip), vehicle: water) of the same compound?
Answer: 112 % of control

Question: What about the T/C (dose: 33.3 mg/kg/injection, schedule: Q04DX003 (ip), vehicle: water) of the same compound?
Answer: 96 % of control

Question: What about the T/C (dose: 48.0 mg/kg/injection, schedule: Q04DX003 (ip), vehicle: water) of the same compound?
Answer: 124 % of control

Question: And the T/C (dose: 96.0 mg/kg/injection, schedule: Q04DX003 (ip), vehicle: water)?
Answer: 93 % of control

Question: With `Cc1cc2c(C)c(-c3ccccc3)c(=O)oc2c(C#N)c1C` as the compound, how does the T/C (dose: 15.0 mg/kg/injection, schedule: Q01DX005 (ip), vehicle: Klucel (hydroxypropylcellulose) (HPC)) read?
Answer: 104 % of control

Question: What about the T/C (dose: 30.0 mg/kg/injection, schedule: Q01DX005 (ip), vehicle: Klucel (hydroxypropylcellulose) (HPC)) of the same compound?
Answer: 95 % of control

Question: And the T/C [1]?
Answer: 90 % of control and 95 % of control

Question: With `CC(=O)O[C@@H]1C(=O)C=C(C)[C@@H]2[C@@H](OC(=O)C=C(C)C)[C@H]3OC(=O)C[C@H]4[C@@H](C)[C@@H](O)[C@]5(O)OC[C@]34[C@H]5[C@@]12C` as the compound, how does the T/C (dose: 0.5 mg/kg/injection, schedule: Q01DX009 (ip), vehicle: distilled water + Tween-80) read?
Answer: 118 % of control

Question: What about the T/C (dose: 1.0 mg/kg/injection, schedule: Q01DX009 (ip), vehicle: distilled water + Tween-80) of the same compound?
Answer: 121 % of control

Question: And the T/C (dose: 10.0 mg/kg/injection, schedule: Q01DX009 (ip), vehicle: distilled water + Tween-80)?
Answer: 177 % of control

Question: With `CN=C(N)N/N=C/c1c2ccccc2c(Cl)c2ccccc12` as the compound, how does the T/C (dose: 25.0 mg/kg/injection, schedule: Q04DX002 (ip), vehicle: saline with Tween-80) read?
Answer: 114 % of control

Question: How did the T/C (dose: 50.0 mg/kg/injection, schedule: Q01DX005 (ip), vehicle: suspension in saline) turn out when `N=C(N)SCCC(=O)NCNC(=O)CCSC(=N)N` was run?
Answer: 98 % of control

Question: And the T/C (dose: 100.0 mg/kg/injection, schedule: Q01DX005 (ip), vehicle: suspension in saline)?
Answer: 99 % of control

Question: What does the source list for `CN=C1CN=C(OP(=O)(N2CCOCC2)N2CCOCC2)c2cc(Cl)ccc2N1`?
Answer: T/C (dose: 50.0 mg/kg/injection, schedule: Q01DX009 (ip), vehicle: Klucel (hydroxypropylcellulose) (HPC)): 98 % of control; T/C (dose: 100.0 mg/kg/injection, schedule: Q01DX009 (ip), vehicle: Klucel (hydroxypropylcellulose) (HPC)): 101 % of control; T/C (dose: 200.0 mg/kg/injection, schedule: Q01DX009 (ip), vehicle: Klucel (hydroxypropylcellulose) (HPC)): 100 % of control

Question: Which T/C (dose: 3.12 mg/kg/injection, schedule: Q01DX009 (ip), vehicle: Klucel (hydroxypropylcellulose) (HPC)) does the source give for `N#CN=[N+]([O-])c1cccc(Cl)c1` here?
Answer: 101 % of control

Question: What about the T/C (dose: 6.25 mg/kg/injection, schedule: Q01DX009 (ip), vehicle: Klucel (hydroxypropylcellulose) (HPC)) of the same compound?
Answer: 108 % of control

Question: What about the T/C (dose: 6.25 mg/kg/injection, schedule: Q04DX003 (ip), vehicle: Klucel (hydroxypropylcellulose) (HPC)) of the same compound?
Answer: 101 % of control

Question: What about the T/C (dose: 12.5 mg/kg/injection, schedule: Q01DX009 (ip), vehicle: Klucel (hydroxypropylcellulose) (HPC)) of the same compound?
Answer: 98 % of control

Question: And the T/C (dose: 12.5 mg/kg/injection, schedule: Q04DX003 (ip), vehicle: Klucel (hydroxypropylcellulose) (HPC))?
Answer: 104 % of control

Question: What about the T/C (dose: 25.0 mg/kg/injection, schedule: Q04DX003 (ip), vehicle: Klucel (hydroxypropylcellulose) (HPC)) of the same compound?
Answer: 91 % of control

Question: For `O=c1c2c([nH]c3ccc4[nH]c5c(c(=O)c4c13)CCCC5)CCCC2`, which T/C (dose: 100.0 mg/kg/injection, schedule: Q04DX003 (ip), vehicle: saline with Tween-80) is on record?
Answer: 94 % of control

Question: What about the T/C (dose: 200.0 mg/kg/injection, schedule: Q04DX003 (ip), vehicle: saline with Tween-80) of the same compound?
Answer: 91 % of control

Question: What about the T/C (dose: 400.0 mg/kg/injection, schedule: Q04DX003 (ip), vehicle: saline with Tween-80) of the same compound?
Answer: 87 % of control

Question: What does the source list for `Cc1cc2n(n1)C(C)(C)C(=O)Nc1ccc(Cl)cc1-2`?
Answer: T/C [1]: 96 % of control; T/C (dose: 120.0 mg/kg/injection, schedule: Q01DX005 (ip), vehicle: Klucel (hydroxypropylcellulose) (HPC)): 96 % of control; T/C (dose: 240.0 mg/kg/injection, schedule: Q01DX005 (ip), vehicle: Klucel (hydroxypropylcellulose) (HPC)): 93 % of control

Question: With `OC(c1cc(-c2ccc(Cl)cc2)nc2ccccc12)C1CCCCN1` (stereo unspecified) as the compound, how does the T/C [2] read?
Answer: 105 % of control

Question: What about the T/C [3] of the same compound?
Answer: 113 % of control

Question: How did the T/C (dose: 100.0 mg/kg/injection, schedule: Q04DX002 (ip), vehicle: suspension in saline) turn out when `COc1cccc(OC)c1SSCCN` was run?
Answer: 107 % of control

Question: And the T/C (dose: 200.0 mg/kg/injection, schedule: Q04DX002 (ip), vehicle: suspension in saline)?
Answer: 111 % of control

Question: With `CC(=O)Nc1ccc(S(=O)(=O)n2c(=O)oc3cc(Cl)ccc32)cc1` as the compound, how does the T/C (dose: 50.0 mg/kg/injection, schedule: Q01DX005 (ip), vehicle: Klucel (hydroxypropylcellulose) (HPC)) read?
Answer: 86 % of control

Question: What about the T/C (dose: 100.0 mg/kg/injection, schedule: Q01DX005 (ip), vehicle: Klucel (hydroxypropylcellulose) (HPC)) of the same compound?
Answer: 99 % of control

Question: And the T/C (dose: 200.0 mg/kg/injection, schedule: Q01DX005 (ip), vehicle: Klucel (hydroxypropylcellulose) (HPC))?
Answer: 86 % of control

Question: How did the T/C (dose: 25.0 mg/kg/injection, schedule: Q01DX001 (ip), vehicle: Klucel (hydroxypropylcellulose) (HPC)) turn out when `NC(=S)c1ccc(N=Cc2ccccn2)cc1` was run?
Answer: 100 % of control

Question: What about the T/C (dose: 50.0 mg/kg/injection, schedule: Q01DX001 (ip), vehicle: Klucel (hydroxypropylcellulose) (HPC)) of the same compound?
Answer: 100 % of control

Question: What about the T/C (dose: 100.0 mg/kg/injection, schedule: Q01DX001 (ip), vehicle: Klucel (hydroxypropylcellulose) (HPC)) of the same compound?
Answer: 103 % of control and 106 % of control

Question: And the T/C (dose: 200.0 mg/kg/injection, schedule: Q01DX001 (ip), vehicle: Klucel (hydroxypropylcellulose) (HPC))?
Answer: 102 % of control

Question: And the T/C (dose: 400.0 mg/kg/injection, schedule: Q01DX001 (ip), vehicle: Klucel (hydroxypropylcellulose) (HPC))?
Answer: 105 % of control

Question: Which T/C (dose: 60.0 mg/kg/injection, schedule: Q01DX005 (ip), vehicle: saline with Tween-80) does the source give for `NC(=O)c1csc([C@@H](O)Cc2ccccc2)n1` here?
Answer: 105 % of control

Question: What about the T/C (dose: 120.0 mg/kg/injection, schedule: Q01DX005 (ip), vehicle: saline with Tween-80) of the same compound?
Answer: 106 % of control

Question: And the T/C (dose: 240.0 mg/kg/injection, schedule: Q01DX005 (ip), vehicle: saline with Tween-80)?
Answer: 106 % of control

Question: How did the T/C [2] turn out when `Nc1nnc2nc(C(C(=O)/C=C\c3cccc(O)c3)c3nc4nnc(N)n4[nH]c3=O)c(=O)[nH]n12` was run?
Answer: 95 % of control

Question: What about the T/C [3] of the same compound?
Answer: 94 % of control

Question: What about the T/C (dose: 200.0 mg/kg/injection, schedule: Q01DX005 (ip), vehicle: saline with Tween-80) of the same compound?
Answer: 100 % of control

Question: With `C=C1C(=O)OC2C[C@@]3(C)CC(O)C[C@H](C)C3=CC12` (stereo partly specified) as the compound, how does the T/C (dose: 10.0 mg/kg/injection, schedule: Q01DX009 (ip), vehicle: distilled water + Tween-80 + alcohol) read?
Answer: 103 % of control

Question: What about the T/C (dose: 20.0 mg/kg/injection, schedule: Q01DX009 (ip), vehicle: distilled water + Tween-80 + alcohol) of the same compound?
Answer: 111 % of control

Question: And the T/C (dose: 37.5 mg/kg/injection, schedule: Q01DX009 (ip), vehicle: distilled water + Tween-80 + alcohol)?
Answer: 120 % of control

Question: And the T/C (dose: 40.0 mg/kg/injection, schedule: Q01DX009 (ip), vehicle: distilled water + Tween-80 + alcohol)?
Answer: 117 % of control

Question: What about the T/C (dose: 75.0 mg/kg/injection, schedule: Q01DX009 (ip), vehicle: distilled water + Tween-80 + alcohol) of the same compound?
Answer: 123 % of control

Question: How did the T/C (dose: 12.5 mg/kg/injection, schedule: Q01DX009 (ip), vehicle: saline) turn out when `CCN(CC)CCOC(=O)Cc1cccc2c(=O)cc(-c3ccccc3)oc12` was run?
Answer: 120 % of control

Question: What about the T/C (dose: 25.0 mg/kg/injection, schedule: Q01DX009 (ip), vehicle: saline) of the same compound?
Answer: 108 % of control and 97 % of control

Question: What about the T/C (dose: 50.0 mg/kg/injection, schedule: Q01DX005 (ip), vehicle: saline) of the same compound?
Answer: 100 % of control

Question: What about the T/C (dose: 100.0 mg/kg/injection, schedule: Q01DX001 (ip), vehicle: saline) of the same compound?
Answer: 102 % of control

Question: And the T/C (dose: 100.0 mg/kg/injection, schedule: Q01DX005 (ip), vehicle: saline)?
Answer: 108 % of control

Question: What about the T/C (dose: 100.0 mg/kg/injection, schedule: Q04DX002 (ip), vehicle: saline) of the same compound?
Answer: 107 % of control

Question: What about the T/C (dose: 100.0 mg/kg/injection, schedule: Q04DX003 (ip), vehicle: saline) of the same compound?
Answer: 107 % of control

Question: What about the T/C (dose: 100.0 mg/kg/injection, schedule: Q08DX002 (ip), vehicle: saline) of the same compound?
Answer: 111 % of control

Question: What about the T/C (dose: 200.0 mg/kg/injection, schedule: Q01DX001 (ip), vehicle: saline) of the same compound?
Answer: 114 % of control

Question: What about the T/C (dose: 200.0 mg/kg/injection, schedule: Q04DX002 (ip), vehicle: saline) of the same compound?
Answer: 110 % of control

Question: And the T/C (dose: 200.0 mg/kg/injection, schedule: Q08DX002 (ip), vehicle: saline)?
Answer: 117 % of control

Question: And the T/C (dose: 300.0 mg/kg/injection, schedule: Q01DX001 (ip), vehicle: saline)?
Answer: 117 % of control

Question: What about the T/C (dose: 300.0 mg/kg/injection, schedule: Q04DX002 (ip), vehicle: saline) of the same compound?
Answer: 114 % of control

Question: And the T/C (dose: 300.0 mg/kg/injection, schedule: Q08DX002 (ip), vehicle: saline)?
Answer: 112 % of control

Question: And the T/C (dose: 400.0 mg/kg/injection, schedule: Q01DX001 (ip), vehicle: saline)?
Answer: 116 % of control
